Results reported in paper PMC4627800, “Allelic Variation of Cytochrome P450s Drives Resistance to Bednet Insecticides in a Major Malaria Vector” (PLoS Genetics, 2015).

Tests used:
Type in all cases: biochemical
FANGCYP6P9a = FANGCYP6P9a (Anopheles funestus, UniProt K7Z0P3); test: Pyrethroid depletion (metabolism) assay with recombinant enzyme; settings: 20μM insecticide, 1 hour, vs -NADPH
Experimental: Membrane expressing recombinant CYP6P9a/-b and AgCPR, and reconstituted cytochrome b5 were added to the side of the tube and pre-incubated for 5 minutes at 30°C, with shaking at 1,200 rpm to activate the membrane. 20μM of test insecticide was then added into the final volume of 0.2ml (~2.5% v/v methanol), and reaction started by vortexing at 1,200 rpm and 30°C for 1 hour. Reactions were quenched with 0.1ml ice-cold methanol and incubated for 5 more minutes. Tubes were then centrifuged at 16,000 rpm and 4°C for 15 minutes, and 150μl of supernatant transferred into HPLC vials for analysis. Reactions were carried out in triplicates with experimental samples (+NADPH) and negative controls (-NADPH). 100μl of sample was loaded onto an isocratic mobile phase (90:10 v/v methanol to water) with a flow rate of 1ml/min, monitoring wavelength of 226nm and peaks separated with a 250mm C18 column (Acclaim 120, Dionex) on Agilent 1260 Infinity at 23°C. Enzyme activity was calculated as percentage depletion (the difference in the amount of insecticide(s) remaining in the +NADPH tubes compared with the–NADPH) and a t-test used for statistical analysis.

MALCYP6P9a = MALCYP6P9a (Anopheles funestus, UniProt B5AII6); test: Steady-state kinetics of pyrethroid metabolism
Experimental: (§1) Reactions were performed in triplicates both for +NADPH (experimental tubes) and–NADPH (negative control). K m and V max were established from the plot of substrate concentrations against the initial velocities and fitting of the data to the Michaelis-Menten module using the least squares non-linear regression, as described in the GraphPad Prism 6.03 Software (GraphPad Inc., La Jolla, CA, USA).

BENCYP6P9b = BENCYP6P9b (Anopheles funestus, UniProt A0A0S1S7Y0); test: Steady-state kinetics of pyrethroid metabolism
Experimental: as §1

UGANCYP6P9b = UGANCYP6P9b (Anopheles funestus, UniProt A0A0S1S7Y0); test: Steady-state kinetics of pyrethroid metabolism
Experimental: as §1

MALCYP6P9b = MALCYP6P9b (Anopheles funestus, UniProt B5AII7); test: Steady-state kinetics of pyrethroid metabolism
Experimental: as §1

BENCYP6P9a = BENCYP6P9a (Anopheles funestus, UniProt A0A0S1RZ75); test: Steady-state kinetics of pyrethroid metabolism
Experimental: as §1

UGANCYP6P9a = UGANCYP6P9a (Anopheles funestus, UniProt B5AII6); test: Steady-state kinetics of pyrethroid metabolism
Experimental: as §1

## CC1(C)C(C=C(Cl)Cl)C1C(=O)OCc1cccc(Oc2ccccc2)c1 (stereo not shown) [permethrin]
FANGCYP6P9a
  Percentage depletion: 29.0±1.42%
MALCYP6P9a
  Kcat: 15.41±6.30^a min^-1
  Km: 18.8 ± 11.8 µM
MALCYP6P9a; MALCYP6P9a vs FANGCYP6P9a
  Kcat, fold higher than FANGCYP6P9a: 3 fold
  catalytic efficiency, fold higher than FANGCYP6P9a: 6 fold
BENCYP6P9b
  Kcat: 15.91±5.45^b min^-1
BENCYP6P9b; BENCYP6P9b vs FANGCYP6P9b
  Kcat, fold higher than FANGCYP6P9b: 4 fold
UGANCYP6P9b
  Kcat: 8.61±3.40^b min^-1
UGANCYP6P9b; UGANCYP6P9b vs FANGCYP6P9b
  Kcat, fold higher than FANGCYP6P9b: 2 fold
MALCYP6P9b
  Kcat: 12.38±4.5^b min^-1
  Km: 12.7 ± 2.68 µM
MALCYP6P9b; MALCYP6P9b vs FANGCYP6P9b
  Kcat, fold higher than FANGCYP6P9b: 3 fold
  catalytic efficiency, fold more efficient than FANGCYP6P9b: 5 fold
BENCYP6P9a
  Kcat: 9.37±3.32^a min^-1
BENCYP6P9a; BENCYP6P9a vs FANGCYP6P9a
  Kcat, fold higher than FANGCYP6P9a: 2 fold
  catalytic efficiency, fold higher than FANGCYP6P9a: 3 fold
UGANCYP6P9a
  Kcat: 0.122 ± 0.017 s⁻¹
UGANCYP6P9a; UGANCYP6P9a vs FANGCYP6P9a
  Kcat, fold higher than FANGCYP6P9a: 2 fold
  catalytic efficiency, fold higher than FANGCYP6P9a: 3 fold
